From patent publication US7939535B2, “Benzo[D]isoxazol-3-yl-piperazin derivatives useful as modulators of dopamine D3 receptors” (Hoffman-La Roche Inc., priority 2008, dated 2011) come the findings set out here.

What is called Ki is the equilibrium dissociation constant of an inhibitor or competing ligand from its target.

T1 sequence (P35462 whole entry): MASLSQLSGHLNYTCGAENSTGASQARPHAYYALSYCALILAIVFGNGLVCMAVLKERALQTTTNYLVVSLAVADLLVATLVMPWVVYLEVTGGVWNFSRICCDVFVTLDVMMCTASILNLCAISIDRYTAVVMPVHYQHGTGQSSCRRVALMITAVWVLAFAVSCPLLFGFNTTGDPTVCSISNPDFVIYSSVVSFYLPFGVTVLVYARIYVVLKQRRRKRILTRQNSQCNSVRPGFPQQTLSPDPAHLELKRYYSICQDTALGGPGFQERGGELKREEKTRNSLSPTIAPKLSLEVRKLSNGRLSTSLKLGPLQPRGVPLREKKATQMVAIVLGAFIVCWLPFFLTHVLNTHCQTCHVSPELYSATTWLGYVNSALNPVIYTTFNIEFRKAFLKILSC

The assay concerns the target T1, human D3 dopamine receptor (Homo sapiens, UniProt P35462).
T1 construct: expressed in transfected cells; host or cells: HEK-293 EBNA cells, transient transfection; membrane homogenate
Put plainly: radioligand binding ([3H]-spiperone) to human D3 receptor membranes. Conditions: [3H]-spiperone displacement, membranes of HEK-293 EBNA cells transiently expressing human D3. How it is done: The ability of the compounds to bind to the D3 receptors was determined using radioligand binding to cloned receptors selectively expressed in HEK-293 EBNA cells.
HEK-293 EBNA cells were transiently transfected with expression plasmids encoding for the human D3 dopamine receptor. The cells were harvested 48 h post-transfection, washed three times with cold PBS and stored at −80° C. prior to use. The pellet was suspended in cold 50 mM Tris-HCl buffer containing 10 mM EDTA (pH 7.4) and homogenized with a Polytron (Kinematica AG, Basel, Switzerland) for 20-30 sec at 12.000 rpm. After centrifugation at 48.000×g for 30 mM at 4° C., the pellet was resuspended in cold 10 mM Tris-HCl buffer containing 0.1 mM EDTA (pH 7.4), homogenized, and centrifuged as above. This pellet was further resuspended in a smaller volume of ice cold 10 mM Tris-HCl buffer containing 0.1 mM EDTA (pH 7.4) and homogenized with a Polytron for 20-30 sec at 12.000 rpm. The protein content of this homogenate was determined with the Bio-Rad (radford) Protein Assay (Biorad Laboratories GmbH, München, Germany) according to the instructions of the manufacturer using gamma globulin as the standard. This homogenate was stored at −80° C. in aliquots and thawed immediately prior to use.
Aliquots of membrane preparations were thawed at RT, resuspended in assay buffer (50 mM Tris-HCl, 120 mM NaCl, 5 mM MgCl2, 1 mM E TA, 5 mM KCl, 1.5 mM CaCl2, pH=7.4), homogenized with a Polytron for 20-30 sec at 12.000 rpm and adjusted to a final concentration of approximately 7.5 μg protein/well.
The binding affinity (Ki) of the compounds was determined using radioligand binding. Membranes were incubated in a total volume of 200 with a fixed concentration of radioligand (final concentration approximately 0.5 nM [^3H]-spiperone) and ten concentrations of test compound in ranging between 10 μM-0.1 nM for 1 at RT. At the end of the incubation, the reaction mixtures were filtered on to unifilter 96-well white microplates with bonded GF/C filters (Packard BioScience, Zürich, Switzerland; preincubated for 1 h in 0.1% polyethylenimine (PEI) in assay buffer) with a Filtermate 196 harvester (Pack rd BioScience) and washed 3 times with cold assay buffer. The nonspecific binding was determined with equally composed reaction mixtures in the presence of 10 μM unlabelled spiperone. Per well 45 μl of Microscint 40 (Perkin Elmer, Schwerzenbach, Switzerland) was added, plate, for sealed, shaken for 20 mM and counted for 3 mM on a Topcount Microplate Scintillation Counter (Canberra Packard SA, Zürich, Switzerland) with quenching correction.
The CPM value for each duplicate of a concentration of competing compound was averaged (y1), then the % specific binding was calculated according to the equation (((y1−non-specific)/(total binding-non-specific))×100). Graphs were plotted with the % specific binding using XLfit, a curve fitting program that iteratively plots the data using Levenburg Marquardt algorithm. The single site competition analysis equation used was y=A+((B−A)/(1+((x/C)^D))), where y is the % specific binding, A is the minimum y, B is the maximum y, C is the IC50, x is the log10 of the concentration of the competing compound and D is the slope of the curve (the Hill Coefficient). From these curves the IC50 (inhibition concentration at which 50% specific binding of the radioligand was displaced) and Hill coefficient were determined. The affinity constant (Ki) was calculated using the Cheng-Prusoff equation Ki=(IC50/1+([L]/Kd), where [L] is the concentration of radioligand and Kd is the dissociation constant of the radioligand at the receptor as determined by the saturation isotherm.
With `CC(=O)N[C@H]1CC[C@H](CCN2CCN(c3noc4c(F)cc(F)cc34)CC2)CC1` [Example 1, N-(trans-4-{2-[4-(5,7-Difluoro-benzo[d]isoxazol-3-yl)-piperazin-1-yl]-ethyl}-cyclohexyl)-acetamide], the inhibition constant (Ki) came out at 3.7 nM.
Under `O=C(CO)N[C@H]1CC[C@H](CCN2CCN(c3noc4c(F)cc(F)cc34)CC2)CC1` [Example 2, N-(trans-4-{2-[4-(5,7-Difluoro-benzo[d]isoxazol-3-yl)-piperazin-1-yl]-ethyl}-cyclohexyl)-2-hydroxy-acetamide] stands 3.88 nM.
Under `COCC(=O)N[C@H]1CC[C@H](CCN2CCN(c3noc4c(F)cc(F)cc34)CC2)CC1` [Example 3, N-(trans-4-{2-[4-(5,7-Difluoro-benzo[d]isoxazol-3-yl)-piperazin-1-yl]-ethyl}-cyclohexyl)-2-methoxy-acetamide] stands 15.6 nM; under `COCCC(=O)N[C@H]1CC[C@H](CCN2CCN(c3noc4c(F)cc(F)cc34)CC2)CC1` [Example 4, N-(trans-4-{2-[4-(5,7-Difluoro-benzo[d]isoxazol-3-yl)-piperazin-1-yl]-ethyl}-cyclohexyl)-3-methoxy-propionamide], 3.66 nM.
As to `CO[C@H]1CC[C@H](CC(=O)N[C@H]2CC[C@H](CCN3CCN(c4noc5c(F)cc(F)cc45)CC3)CC2)CC1` [Example 5, N-(trans-4-{2-[4-(5,7-Difluoro-benzo[d]isoxazol-3-yl)-piperazin-1-yl]-ethyl}-cyclohexyl)-2-(trans-4-methoxy-cyclohexyl)-acetamide], the Ki came out at 11.8 nM.
In the case of `CCC(=O)N[C@H]1CC[C@H](CCN2CCN(c3noc4c(F)cc(F)cc34)CC2)CC1` [Example 6, N-(trans-4-{2-[4-(5,7-Difluoro-benzo[d]isoxazol-3-yl)-piperazin-1-yl]-ethyl}-cyclohexyl)-propionamide], the inhibition constant Ki worked out at 4.53 nM.
Take `O=C(CC1CC1)N[C@H]1CC[C@H](CCN2CCN(c3noc4c(F)cc(F)cc34)CC2)CC1` [Example 7, 2-Cyclopropyl-N-(trans-4-{2-[4-(5,7-difluoro-benzo[d]isoxazol-3-yl)-piperazin-1-yl]-ethyl}-cyclohexyl)-acetamide]: the Ki was determined as 2.72 nM.
Turning to `O=C(N[C@H]1CC[C@H](CCN2CCN(c3noc4c(F)cc(F)cc34)CC2)CC1)C1CCOCC1` [Example 8, Tetrahydro-pyran-4-carboxylic acid (trans-4-{2-[4-(5,7-difluoro-benzo[d]isoxazol-3-yl)-piperazin-1-yl]-ethyl}-cyclohexyl)-amide], the inhibitory constant (Ki) amounted to 9.81 nM.
Under `NC(=O)CC(=O)N[C@H]1CC[C@H](CCN2CCN(c3noc4c(F)cc(F)cc34)CC2)CC1` [Example 9, N-(trans-4-{2-[4-(5,7-Difluoro-benzo[d]isoxazol-3-yl)-piperazin-1-yl]-ethyl}-cyclohexyl)-malonamide] stands 5.94 nM; under `CC(=O)N[C@H]1CC[C@H](CCN2CCN(c3noc4ccc(F)c(F)c34)CC2)CC1` [Example 10, N-(trans-4-{2-[4-(4,5-Difluoro-benzo[d]isoxazol-3-yl)-piperazin-1-yl]-ethyl}-cyclohexyl)-acetamide], 8.57 nM; under `COCCC(=O)N[C@H]1CC[C@H](CCN2CCN(c3noc4ccc(F)c(F)c34)CC2)CC1` [Example 11, N-(trans-4-{2-[4-(4,5-Difluoro-benzo[d]isoxazol-3-yl)-piperazin-1-yl]-ethyl}-cyclohexyl)-3-methoxy-propionamide], 9.71 nM.
